Counter-ions that a name gives are not always drawn.
Experiments:
[1] = target: T1, farnesyl pyrophosphate synthase (FPPS) (Homo sapiens, UniProt P14324); assay: farnesyl pyrophosphate synthase (FPPS) inhibition assay; assay type: biochemical
T1 sequence (P14324 1-419): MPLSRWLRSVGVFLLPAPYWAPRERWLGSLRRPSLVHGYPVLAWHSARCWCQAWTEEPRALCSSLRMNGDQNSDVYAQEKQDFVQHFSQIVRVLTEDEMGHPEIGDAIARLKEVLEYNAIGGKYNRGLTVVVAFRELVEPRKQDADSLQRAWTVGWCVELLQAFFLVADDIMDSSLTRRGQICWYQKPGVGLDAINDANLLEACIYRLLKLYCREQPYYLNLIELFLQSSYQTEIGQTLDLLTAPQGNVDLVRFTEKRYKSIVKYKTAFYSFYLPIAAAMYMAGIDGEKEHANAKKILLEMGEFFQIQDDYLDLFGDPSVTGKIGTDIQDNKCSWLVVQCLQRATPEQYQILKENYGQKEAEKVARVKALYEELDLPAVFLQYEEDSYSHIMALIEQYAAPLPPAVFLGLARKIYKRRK
Method: The activity of the racemic mixture, is approximately 42 nM.

[2] = test system: bone resorption and mineralization; assay: Schenk Model: in vivo bone resorption inhibition and mineralization inhibition, lowest effective dose; settings: for Lowest Effective Dose, Bone Mineral Density (BMD) / Lowest Effective Dose, Bone Mineral Content (BMC): head-to-head comparison of all three compounds; for Lowest Effective Dose, Bone Mineral Content (BMC): highest dose tested 0.1

Row | Compound | IC50 [1] | Lowest Effective Dose, Bone Mineral Density (BMD) [2] | Lowest Effective Dose, Bone Mineral Content (BMC) [2] | activity in the Schenk assay relative to enantiomer (1S,6R) and racemic mixture ([2]; compared with (1S,6R) enantiomer and corresponding racemic mixture)
1 | O=P(O)(O)C1(P(=O)(O)O)CC2CCCNC2C1 (racemic) [Racemic Mixture] | ~42 nM | 0.03 mg P/kg | 0.03 mg P/kg | 
2 | O=P(O)(O)C1(P(=O)(O)O)C[C@@H]2CCCN[C@@H]2C1 [1R,6S Isomer, (1R,6S)-2-Azabicyclo[4.3.0]nonane-8,8-diphosphonic acid hydrochloride salt] | 15 nM | 0.01 mg P/kg | 0.01 mg P/kg | more active
3 | O=P(O)(O)C1(P(=O)(O)O)C[C@H]2CCCN[C@H]2C1 [1S,6R Isomer] | 359 nM | 0.1 mg P/kg | >0.1^2^ mg P/kg | 
